Laboratory results taken from US9073940B2, “Tricyclic pyrazol amine derivatives” (MERCK SERONO SA, priority 2009, dated 2015).
Where a name gives a salt, the structure may show the parent alone.

Each compound was assayed on 4 PI3K isoforms (Human recombinant GST-PI3K) (assay: PI3K scintillation proximity assay, best IC50 obtained with the four isoforms (alpha, beta, delta, gamma)). Conditions: best IC50 obtained with the four isoforms of PI3K; read-out: Best potency measured on the 4 PI3K isoforms.
Assay type: biochemical
Work on `O=C(c1nn(C2CCCNC2)c2c1CS(=O)(=O)c1cc(OC(F)(F)F)ccc1-2)N1CCOCC1` (centres unmarked) [Example 481, 7-(Trifluoromethoxy)-3-(morpholin-4-ylcarbonyl)-1-piperidin-3-yl-1,4-dihydrothiochromeno[4,3-c]pyrazole 5,5-dioxide] yielded an IC50 of 10500 nM. `O=C(c1nn([C@H]2CCCN(CCN3CCCCC3)C2)c2c1CS(=O)(=O)c1ccccc1-2)N1CCOCC1` (stereo in doubt) [Example 465, 3-(morpholin-4-ylcarbonyl)-1-[1-(2-piperidin-1-ylethyl)piperidin-3-yl]-1,4-dihydrothiochromeno[4,3-c]pyrazole 5,5-dioxide] gave an IC50 of 15 nM. `NC(=O)c1cccc(-n2nc(C(=O)N3CCOCC3)c3c2-c2ccccc2S(=O)(=O)C3)c1` [Example 62, 3-[3-(Morpholin-4-ylcarbonyl)-5,5-dioxidothiochromeno[4,3-c]pyrazol-1(4H)-yl]benzamide] was tested, and the IC50 was 957 nM. `O=C(c1n[nH]c2c1CS(=O)(=O)c1ccccc1-2)N1CCOCC1` [Example 3, 3-(morpholin-4-ylcarbonyl)-2,4-dihydrothiochromeno[4,3-c]pyrazole 5,5-dioxide] was tested, and the IC50 was 2880 nM. With `CN(C)CCn1nc(C(=O)N2CCOCC2)c2c1-c1ccccc1S(=O)(=O)C2` [Example 42, N,N-dimethyl-2-[3-(morpholin-4-ylcarbonyl)-5,5-dioxidothiochromeno[4,3-c]pyrazol-1(4H)-yl]ethanamine] the IC50 was 1500 nM. With `CC1COCCN1C(=O)c1nn(-c2ccccc2)c2c1CS(=O)(=O)c1ccccc1-2` (centres unmarked) [Example 338, 3-[(3-Methylmorpholin-4-yl)carbonyl]-1-phenyl-1,4-dihydrothiochromeno[4,3-c]pyrazole 5,5-dioxide] the IC50 was 13900 nM. With `O=C(c1nn(C2CCCN(CCF)C2)c2c1CS(=O)(=O)c1ccccc1-2)N1CCOCC1` (single isomer, unassigned) [Example 221, 1-[1-(2-fluoroethyl)piperidin-3-yl]-3-(morpholin-4-ylcarbonyl)-1,4-dihydrothiochromeno[4,3-c]pyrazole 5,5-dioxide] the IC50 was 320 nM. `O=C(c1nn(C2CCN(CCC3CCOCC3)CC2)c2c1CS(=O)(=O)c1ccccc1-2)N1CCOCC1` [Example 285, 3-(morpholin-4-ylcarbonyl)-1-{1-[2-(tetrahydro-2H-pyran-4-yl)ethyl]piperidin-4-yl}-1,4-dihydrothiochromeno[4,3-c]pyrazole 5,5-dioxide] showed an IC50 of 692 nM. `O=C(c1nn([C@H]2CCCN(CC3CCOCC3)C2)c2c1CS(=O)(=O)c1ccccc1-2)N1CCOCC1` (stereo in doubt) [Example 361, 3-(morpholin-4-ylcarbonyl)-1-[1-(tetrahydro-2H-pyran-4-ylmethyl)piperidin-3-yl]-1,4-dihydrothiochromeno[4,3-c]pyrazole 5,5-dioxide] showed an IC50 of 25 nM. Work on `O=C(c1nn([C@@H]2CCN(CCC3CCOCC3)C2)c2c1CS(=O)(=O)c1c(F)cccc1-2)N1CCOCC1` (single isomer, unassigned) [Example 356, 6-fluoro-3-(morpholin-4-ylcarbonyl)-1-{1-[2-(tetrahydro-2H-pyran-4-yl)ethyl]pyrrolidin-3-yl}-1,4-dihydrothiochromeno[4,3-c]pyrazole 5,5-dioxide hydrochloride salt] yielded an IC50 of 1690 nM. With `O=C(c1nn(C2CCCN(CCN3CCC(F)CC3)C2)c2c1CS(=O)(=O)c1ccccc1-2)N1CCOCC1` (centres unmarked) [Example 281, 1-{1-[2-(4-Fluoropiperidin-1-yl)ethyl]piperidin-3-yl}-3-(morpholin-4-ylcarbonyl)-1,4-dihydrothiochromeno[4,3-c]pyrazole 5,5-dioxide] the IC50 was 34 nM. In the case of `O=C(c1nn([C@H]2CCCN(Cc3cccnc3)C2)c2c1CS(=O)(=O)c1ccccc1-2)N1CCOCC1` (stereo in doubt) [Example 466, 3-(morpholin-4-ylcarbonyl)-1-[1-(pyridin-3-ylmethyl)piperidin-3-yl]-1,4-dihydrothiochromeno[4,3-c]pyrazole 5,5-dioxide], the IC50 is reported as 85 nM. With `O=C(c1nn(C2CCCCCC2)c2c1CS(=O)(=O)c1ccccc1-2)N1CCOCC1` [Example 78, 1-Cycloheptyl-3-(morpholin-4-ylcarbonyl)-1,4-dihydrothiochromeno[4,3-c]pyrazole 5,5-dioxide] the IC50 was 469 nM. With `O=C(O)c1nn(-c2ccc(CN3CCOCC3)cc2)c2c1CS(=O)(=O)c1ccccc1-2` [Example 238, 1-[4-(Morpholin-4-ylmethyl)phenyl]-1,4-dihydrothiochromeno[4,3-c]pyrazole-3-carboxylic acid 5,5-dioxide] the IC50 was 4040 nM. In the case of `COc1ccc2c(c1)S(=O)(=O)Cc1c(C(=O)N3CCOCC3)nn([C@H]3CCCN(CCN4CCOCC4)C3)c1-2` (single isomer, unassigned) [Example 383, 7-methoxy-3-(morpholin-4-ylcarbonyl)-1-[1-(2-morpholin-4-ylethyl)piperidin-3-yl]-1,4-dihydrothiochromeno[4,3-c]pyrazole 5,5-dioxide], the IC50 is reported as 24 nM. `O=C(c1nn([C@H]2CCN(C3CCOCC3)C2)c2c1CS(=O)(=O)c1ccccc1-2)N1CCOCC1` (single isomer, unassigned) [Example 402] gave an IC50 of 1440 nM. Work on `COc1ccc(-n2nc(C(=O)N3CCOCC3)c3c2-c2ccccc2S(=O)(=O)C3)cc1` [Example 10, 1-(4-methoxyphenyl)-3-(morpholin-4-ylcarbonyl)-1,4-dihydrothiochromeno[4,3-c]pyrazole 5,5-dioxide] yielded an IC50 of 749 nM. `CN(C)c1cccc(-n2nc(C(=O)N3CCOCC3)c3c2-c2ccccc2S(=O)(=O)C3)c1` [Example 177, N,N-Dimethyl-3-[3-(morpholin-4-ylcarbonyl)-5,5-dioxidothiochromeno[4,3-c]pyrazol-1 (4H)-yl]aniline] gave an IC50 of 4720 nM. With `COCCN1CCC(n2nc(C(=O)N3CCOCC3)c3c2-c2ccccc2S(=O)(=O)C3)C1` (centres unmarked) [Example 255, 1-[1-(2-Methoxyethyl)pyrrolidin-3-yl]-3-(morpholin-4-ylcarbonyl)-1,4-dihydrothiochromeno[4,3-c]pyrazole 5,5-dioxide] the IC50 was 1480 nM. For `O=C(c1nn([C@H]2CCCN(C3CCCOC3)C2)c2c1CS(=O)(=O)c1c(F)cccc1-2)N1CCOCC1` (stereo in doubt) [Example 425, 6-Fluoro-3-(morpholin-4-ylcarbonyl)-1-[1-(tetrahydro-2H-pyran-3-yl)piperidin-3-yl]-1,4-dihydrothiochromeno[4,3-c]pyrazole 5,5-dioxide], the IC50 was 25 nM. `COC1CCCN(C(=O)c2cccc(-n3nc(C(=O)N4CCOCC4)c4c3-c3ccccc3S(=O)(=O)C4)c2)C1` (centres unmarked) [Example 159, 1-{3-[(3-Methoxypiperidin-1-yl)carbonyl]phenyl}-3-(morpholin-4-ylcarbonyl)-1,4-dihydrothiochromeno[4,3-c]pyrazole 5,5-dioxide] gave an IC50 of 246 nM. In the case of `O=C(c1nn(C2CCN(CCN3CC[C@@H](F)C3)C2)c2c1CS(=O)(=O)c1ccccc1-2)N1CCOCC1` (stereo partly drawn) [Example 308, 1-(1-{2-[(3R)-3-Fluoropyrrolidin-1-yl]ethyl}pyrrolidin-3-yl)-3-(morpholin-4-ylcarbonyl)-1,4-dihydrothiochromeno[4,3-c]pyrazole 5,5-dioxide], the IC50 is reported as 120 nM. For `COCCN(C)CCN1CCC[C@H](n2nc(C(=O)N3CCOCC3)c3c2-c2ccccc2S(=O)(=O)C3)C1` (stereo in doubt) [Example 438, 2-methoxy-N-methyl-N-(2-{3-[3-(morpholin-4-ylcarbonyl)-5,5-dioxidothiochromeno[4,3-c]pyrazol-1(4H)-yl]piperidin-1-yl}ethyl)ethanamine], the IC50 was 45 nM. With `O=C1CCCN1CCN1CCC[C@H](n2nc(C(=O)N3CCOCC3)c3c2-c2ccccc2S(=O)(=O)C3)C1` (single isomer, unassigned) [Example 440, 1-(2-{3-[3-(morpholin-4-ylcarbonyl)-5,5-dioxidothiochromeno[4,3-c]pyrazol-1(4H)-yl]piperidin-1-yl}ethyl)pyrrolidin-2-one] the IC50 was 80 nM. `O=C(c1nn(-c2ccc(CN3CCOCC3)cc2)c2c1CS(=O)(=O)c1ccc(F)cc1-2)N1CCOCC1` [Example 392, 8-Fluoro-3-(morpholin-4-ylcarbonyl)-1-[4-(morpholin-4-ylmethyl)phenyl]-1,4-dihydrothiochromeno[4,3-c]pyrazole 5,5-dioxide] gave an IC50 of 555 nM. `O=C(c1nn(C2CCCN(CCC3CCOCC3)C2)c2c1CS(=O)(=O)c1ncccc1-2)N1CCOCC1` (centres unmarked) [Example 408] gave an IC50 of 61 nM. Work on `COc1ccc2c(c1)-c1c(c(C(=O)N3CCOCC3)nn1C1CCCN(CCN3CCOCC3)C1)CS2(=O)=O` (centres unmarked) [Example 453, 8-methoxy-3-(morpholin-4-ylcarbonyl)-1-[1-(2-morpholin-4-ylethyl)piperidin-3-yl]-1,4-dihydrothiochromeno[4,3-c]pyrazole 5,5-dioxide] yielded an IC50 of 28 nM. `CN1CCC(Cn2nc(C(=O)N3CCOCC3)c3c2-c2ccccc2S(=O)(=O)C3)CC1` [Example 208, 1-[(1-Methylpiperidin-4-yl)methyl]-3-(morpholin-4-ylcarbonyl)-1,4-dihydrothiochromeno[4,3-c]pyrazole 5,5-dioxide] showed an IC50 of 2650 nM. With `O=C(c1nn(-c2ccc(CO)cc2)c2c1CS(=O)(=O)c1ccccc1-2)N1CCOCC1` [Example 153, {4-[3-(Morpholin-4-ylcarbonyl)-5,5-dioxidothiochromeno[4,3-c]pyrazol-1(4H)-yl]phenyl}methanol] the IC50 was 1060 nM. `O=C(c1cccc(-n2nc(C(=O)N3CCOCC3)c3c2-c2ccccc2S(=O)(=O)C3)c1)N1CCCC(CO)C1` (centres unmarked) [Example 145, (1-{3-[3-(Morpholin-4-ylcarbonyl)-5,5-dioxidothiochromeno[4,3-c]pyrazol-1 (4H)-yl]benzoyl}piperidin-3-yl)methanol] was tested, and the IC50 was 502 nM. `O=C(c1nn([C@H]2CCCN(CCN3CC(F)(F)C3)C2)c2c1CS(=O)(=O)c1c(F)cccc1-2)N1CCOCC1` (stereo in doubt) [Example 464, 1-{1-[2-(3,3-difluoroazetidin-1-yl)ethyl]piperidin-3-yl}-6-fluoro-3-(morpholin-4-ylcarbonyl)-1,4-dihydrothiochromeno[4,3-c]pyrazole 5,5-dioxide] showed an IC50 of 22 nM. `CNCc1ccc(-n2nc(C(=O)N3CCOCC3)c3c2-c2ccccc2S(=O)(=O)C3)cc1` [Example 449, N-Methyl-1-{4-[3-(morpholin-4-ylcarbonyl)-5,5-dioxidothiochromeno[4,3-c]pyrazol-1 (4H)-yl]phenyl}methanamine] gave an IC50 of 226 nM.
